{"source": "patent US10272126B2", "about": "“Nanoparticle-stabilized microcapsules, dispersions comprising nanoparticle-stabilized microcapsules, and method for the treatment of bacterial biofilms” (The University of Massachusetts, priority 2015, dated 2019)", "tested_on": "NIH 3T3 fibroblast cells", "assay": "Biofilm-3T3 fibroblast co-culture: mammalian cell viability (LDH cytotoxicity assay)", "format": "cell-based", "text": "Scatters and lines represent 3T3 fibroblast cell viability. Bars represent log10 of colony forming units in biofilms. The data are average of triplicates and the error bars indicate the standard deviations.\nBiofilm infections within wounds interfere with the ability of the host to regenerate damaged tissue. See, e.g., Roy, S.; Elgharably, H.; Sinha, M.; Ganesh, K.; Chaney, S.; Mann, E.; Miller, C.; Khanna, S.; Bergdall, V. K.; Powell, H. M.; et al. Mixed-Species Biofilm Compromises Wound Healing by Disrupting Epidermal Barrier Function. J. Pathol. 2014, 233, 331-343. […] The co-cultures were treated with capsules for 3 hours, washed, and the viabilities of both fibroblasts and bacteria were measured. […]\nTesting solutions at different concentrations were made by diluting capsules into DMEM prior to use. […] Co-cultures were then analyzed using a LDH cytotoxicity assay to determine mammalian cell viability according the manufacturer's instructions. See, e.g., Decker, T.; Lohmann-Matthes, M. L. A Quick and Simple Method for the Quantitation of Lactate Dehydrogenase Release in Measurements of Cellular Cytotoxicity and Tumor Necrosis Factor (TNF) Activity. […] The solutions containing dispersed bacteria were then plated onto agar plates and colony forming units were counted after incubation at 37° C. overnight.", "data": [{"substance": "peppermint oil", "values": [{"measurement": "3T3 fibroblast cell viability in co-culture", "result": "toxic effects"}]}]}
